Results on 20 compounds are retold here after patent publication US20130191933A1, “METHODS OF TREATING PAIN AND MORPHINE TOLERANCE VIA MODULATION OF HEDGEHOG SIGNALLING PATHWAY” (BOARD OF REGENTS, THE UNIVERSITY OF TEXAS SYSTEM, priority 2010, published 2013).

Assay [1] addresses Smo (Homo sapiens, UniProt Q99835). The following applies: cited from earlier work.
Assay [2] has as its system Glil,2-mediated transcription in HaCat cells. The following applies: cited from earlier work.
Assay [3] relates to Ptchl and BCL2 in HaCaT cells. The following applies: cited from earlier work.
Assay [4] deals with rats with sciatic nerve ligation (neuropathic pain). Kind of assay: Neuropathic pain paradigm: sciatic nerve ligation, mechanical allodynia by Von Frey filaments. In kind it is in vivo, Sprague-Dawley rats. The conditions noted are these: rats two weeks after sciatic nerve ligation; daily intrathecal (lumbar puncture) drug; sub-clinical/low dose of morphine. As to the method: Animals underwent sciatic nerve ligation as described (Chung et al.), and were then allowed to recover for two weeks. Allodynia was measured using mechanical withdrawal threshold (Von Frey hairs). […] Drugs were administered using lumbar puncture under anesthesia.
Hh signaling modulates neuropathic pain, inflammatory pain, and opioid tolerance in rats. […] With regards to neuropathic pain, animals underwent sciatic nerve ligation as previously described in Chung et al., and were then allowed to recover for two weeks. Allodynia was measured by assessing the withdrawal threshold to a mechanical stimulus (Von Frey hairs). […] Drugs were administered using lumbar puncture under anesthesia.
To test this, we examined the effects of pharmacologically blocking Smoothened activity in rodent pain models. Injection of Complete Freund's Adjuvant (CFA) into the rat hindpaw causes local inflammation, swelling, and decreased nociceptive thresholds, Stein, C., et al., A. Unilateral inflammation of the Hindpaw in rats as a Model of Prolonged Noxious Stimulation: Alterations in Behavior and Nociceptive Thresholds, Pharmacol Biochem Behav 31, […] (1988). FIG. 11 provides an inflammatory pain paradigm. Here, the hindpaws were injected with saline (sham, n=6), or CFA. […] Similarly, FIG. 10 provides a neuropathic pain paradigm. […] Mechanical allodynia was assessed using Von Frey filaments. […]

The test system of assay [5] is rats with complete Freund's adjuvant (CFA) injection (inflammatory pain). Kind of assay: Inflammatory pain paradigm: CFA hindpaw injection, thermal hyperalgesia by paw withdrawal latency (PWL). In kind it is in vivo, Sprague-Dawley rats. The following applies: rats after CFA hindpaw injection; for analgesic effect on thermal hyperalgesia (paw withdrawal latency, PWL): intrathecal (lumbar puncture) drug, Days 1-4; for development of tolerance to the analgesic effect (PWL): repeated intrathecal dosing. The procedure: Animals underwent complete Freund's adjuvant (CFA) injection under anesthesia. Hyperalgesia was then measured using withdrawal latency of the paw to a thermal stimulus (PWL). […] Drugs were administered using lumbar puncture under anesthesia.
Hyperalgesia was then measured using withdrawal latency of the paw to a thermal stimulus (PWL). […] Drugs were administered using lumbar puncture under anesthesia..
To test this, we examined the effects of pharmacologically blocking Smoothened activity in rodent pain models. Injection of Complete Freund's Adjuvant (CFA) into the rat hindpaw causes local inflammation, swelling, and decreased nociceptive thresholds, Stein, C., et al., A. Unilateral inflammation of the Hindpaw in rats as a Model of Prolonged Noxious Stimulation: Alterations in Behavior and Nociceptive Thresholds, Pharmacol Biochem Behav 31, […] (1988). FIG. 11 provides an inflammatory pain paradigm. Here, the hindpaws were injected with saline (sham, n=6), or CFA. […] Similarly, FIG. 10 provides a neuropathic pain paradigm. […] Animals received daily intrathecal injections of vehicle (n=3) or drugs (CP, n=6; MS, n=6; or MS+CP, n=5). Mechanical allodynia was assessed using Von Frey filaments. […] All data are+/−S.E.M.
Animals: Sprague-Dawley rats (male, […]) were housed three to a cage with water and food ad libitum and kept in temperature controlled rooms on a 12:12 hour light-dark cycle, with the dark cycle beginning at 7:00 pm. Animals were habituated to the testing environment for one week prior to testing and all tests were performed in the morning. All protocols were approved by our Institutional Animal Care and Use Committee.
Drugs and Intermittent Lumbar Puncture: Rats were anesthetized with 2% isoflurane in oxygen. The lumbar region was shaved, prepared with Betadine solution and the intervertebral spaces widened by placing the animal on a plexiglas tube.
Complete Freund's Adjuvant (CFA) […]: Under isoflurane […], the plantar surface of the left hindpaw was cleansed and 100 μl of CFA (Sigma, St. Louis, Mo.) injected using a 25-gauge needle. Animals recovered for 24 hours prior to analgesic testing.
Paw Withdrawal Latency (PWL): PWL was measured by placing the animals in Plexiglas cages (9×22×25 cm.) on a modified Hargreaves Device, consisting of a glass surface maintained at 30° C. A stimulus lamp was focused on the tail with three measurements taken on different portions of the tail. An abrupt flick of the tail secondary to the thermal stimulus was sensed by photodiodes, and this served to terminate the stimulus and stop the timer. Animals were habituated to the device for one week prior to testing and for 30 min before each test session. The intensity of the thermal stimulus used in the TFL test was adjusted so baseline TFL was between 10-12 seconds to 20 second was used as an automatic cutoff time to avoid paw damage. The TFLs at the time points of 15, 30, and 45 minutes post-injection were measured and compared (n=6-8 per group).

In assay [6] the test system is Gli-mediated transcription. The conditions noted are these: cited from earlier work; for Gli-mediated transcription: in a variety of cell types (Cur-61414: cell and tissues types; Robotnikinin: also synthetic human tissue).

Entries after “also recorded” stand apart in the source; their conditions may differ.

Sequence of Smo (Q99835 28-787): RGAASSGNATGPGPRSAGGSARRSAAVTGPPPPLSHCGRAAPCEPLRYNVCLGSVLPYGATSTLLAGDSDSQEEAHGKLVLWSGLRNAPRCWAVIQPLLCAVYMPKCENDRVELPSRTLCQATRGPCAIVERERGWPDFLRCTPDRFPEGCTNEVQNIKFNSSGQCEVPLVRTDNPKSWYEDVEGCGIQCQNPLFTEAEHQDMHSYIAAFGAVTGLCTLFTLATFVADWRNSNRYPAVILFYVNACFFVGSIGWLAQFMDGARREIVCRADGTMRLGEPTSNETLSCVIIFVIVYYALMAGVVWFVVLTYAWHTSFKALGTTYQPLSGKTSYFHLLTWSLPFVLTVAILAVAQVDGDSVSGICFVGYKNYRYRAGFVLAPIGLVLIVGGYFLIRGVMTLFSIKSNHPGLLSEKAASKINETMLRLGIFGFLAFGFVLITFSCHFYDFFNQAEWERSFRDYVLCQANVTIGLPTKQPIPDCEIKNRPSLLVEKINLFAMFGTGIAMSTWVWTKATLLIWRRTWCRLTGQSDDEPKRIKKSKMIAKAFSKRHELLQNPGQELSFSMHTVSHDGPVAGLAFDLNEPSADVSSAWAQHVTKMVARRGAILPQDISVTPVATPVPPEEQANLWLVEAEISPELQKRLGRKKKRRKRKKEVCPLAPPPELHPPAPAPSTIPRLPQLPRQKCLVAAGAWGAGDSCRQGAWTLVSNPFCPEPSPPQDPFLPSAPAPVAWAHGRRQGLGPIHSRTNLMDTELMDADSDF

Turning to `CC1=C2C[C@H]3[C@@H](CC=C4CC(=O)CC[C@@]43C)[C@@H]2CC[C@]12O[C@@H]1C[C@H](C)CN(CCNC(=O)CCCCCNC(=O)CCc3ccccc3)[C@H]1[C@H]2C` [KAAD-cyclopamine], the “targeting / binding of Smo” value in assay [1] is recorded as “target Smo”.
As for `C[C@]12C(=O)C=CCC1=CC[C@@H]1[C@@H]2CC[C@]2(O)C(=O)O[C@@]3(C)[C@H]4C[C@]5(C)[C@@H](CO[C@@]16O[C@@]32[C@H]5C6=O)C(=O)O4` [Physalin B], in assay [2], the “Glil,2-mediated transcription” value is reported as “Inhibits Glil,2-mediated transcription in HaCat cells”. In addition, the “transcription of Ptchl and BCL2” value in assay [3] is “Inhibits transcription of Ptchl and BCL2 in HaCaT cells”.
As to `CN1CC[C@]23c4c5ccc(O)c4O[C@H]2[C@@H](O)C=C[C@H]3[C@H]1C5` [morphine], in assay [4], the “analgesic effect on mechanical allodynia (mechanical withdrawal threshold, Von Frey)” value is on record as “Neither morphine or cyclopamine had analgesic effects; also recorded: Neither a sub-clinical dose of morphine nor cyclopamine had analgesic effects; also recorded: neither cyclopamine nor a low dose of morphine had analgesic effects alone”. In assay [5], the “analgesic effect on thermal hyperalgesia (paw withdrawal latency, PWL)” value is “caused analgesia” and the “development of tolerance to the analgesic effect (PWL)” value was “tolerance developed with repeated dosing”. Also, in assay [5] (listed as Morphine), the “analgesic effect on thermal hyperalgesia (paw withdrawal latency, PWL)” value is given as “exhibited analgesic effects” and the “development of tolerance to the analgesic effect (PWL)” value is “tolerance developed rapidly”.
Regarding `CC1=C2C[C@H]3[C@@H](CC[C@@H]4C[C@H](NS(C)(=O)=O)CC[C@@]43C)[C@@H]2CC[C@@]2(C1)O[C@@H]1C[C@H](C)CN[C@H]1[C@H]2C` [IPI-926], in assay [1], the “targeting / binding of Smo” value is reported as “Targets Smo”. For the same compound, in assay [6], the Gli-mediated transcription result was “Represses Gli-medicated transcription in a variety of cell types”.
In the case of `CC(C)CC[C@H](O)[C@@H](C)[C@H]1CC[C@H]2[C@@H]3CC=C4C[C@@H](O)CC[C@]4(C)[C@H]3CC[C@]12C` [22(S)-Hydroxycholesterol], in assay [1], the “targeting / binding of Smo” value is on record as “Does not bind directly to Smo”. Besides, the Gli-mediated transcription result in assay [6] is given as “Activates Gli-mediated transcription in a variety of cell types”.
As for `CCc1ccc(-c2ccc(/C=C/C(=O)N3CCCCC3)cc2)nc1` [SANT4], the “targeting / binding of Smo” value in assay [1] is listed as “Targets Smo”. Besides, in assay [6], the Gli-mediated transcription entry was “Represses Gli-medicated transcription in a variety of cell types”.
Consider `c1ccc2c(Oc3nc(Nc4ccc(N5CCOCC5)cc4)c4ncn(C5CCCCC5)c4n3)cccc2c1` [Purmorphamine], for which, in assay [1], the “targeting / binding of Smo” value was “Binds Smo and competes directly with cyclopamine-Smo”. Further, the Gli-mediated transcription result in assay [6] was “Activates Gli-mediated transcription in a variety of cell types”.
As for `Cc1nn(-c2ccccc2)c(C)c1/C=N/N1CCN(Cc2ccccc2)CC1` [SANT1], the “targeting / binding of Smo” value in assay [1] is listed as “Targets Smo”. Besides, in assay [6], the Gli-mediated transcription entry was “Represses Gli-medicated transcription in a variety of cell types”.
For `CS(=O)(=O)c1ccc(C(=O)Nc2ccc(Cl)c(-c3ccccn3)c2)c(Cl)c1` [GDC-0449], in assay [1], the “targeting / binding of Smo” value is “Targets Smo”. In addition, the Gli-mediated transcription entry in assay [6] is recorded as “Represses Gli-medicated transcription in a variety of cell types”.
Take `CN(C)c1ccccc1CN1CCCN(Cc2ccccc2N(C)C)C1c1ccncc1` [GANT61]: in assay [6], the “site of action in the pathway” value was “Acts downstream of Smo and Sufu”; the Gli-mediated transcription result is “Represses Gli-medicated transcription in a variety of cell types”.
For the compound `CNC1CCC(N(Cc2cccc(-c3ccncc3)c2)C(=O)c2sc3ccccc3c2Cl)CC1` (centres unmarked) [SAG], the “targeting / binding of Smo” value in assay [1] is “Binds Smo and competes directly with cyclopamine-Smo”. Further, the Gli-mediated transcription entry in assay [6] is listed as “Activates Gli-mediated transcription in a variety of cell types”.
Consider `C/C1=C\CC(C)(C)/C=C/C(=O)/C(C)=C/CC1` [Zerumbone], for which the “Glil,2-mediated transcription” value in assay [2] is “Inhibits Glil,2-mediated transcription in HaCat cells”. The “transcription of Ptchl and BCL2” value in assay [3] is “Inhibits transcription of Ptchl and BCL2 in HaCaT cells”.
`CC(C)[C@@H](O)CC[C@@H](C)[C@H]1CC[C@H]2[C@@H]3CC=C4C[C@@H](O)CC[C@]4(C)[C@H]3CC[C@]12C` [24(S)-Hydroxycholesterol]: the “targeting / binding of Smo” value in assay [1] is listed as “Does not bind directly to Smo”. In assay [6], the Gli-mediated transcription entry is “Activates Gli-mediated transcription in a variety of cell types”.
Consider `COc1cccc(CN(C(=O)CC(C)(C)C)[C@H]2C[C@@H](C(=O)N3CCNCC3)N(Cc3ccc4c(c3)OCO4)C2)c1` [Cur-61414], for which, in assay [1], the “targeting / binding of Smo” value is “Targets Smo”.
Regarding `c1cc(-c2sc(-c3ccncc3)c(-c3ccncc3)c2-c2ccncc2)ccn1` [GANT58], in assay [6], the “site of action in the pathway” value is “Acts downstream of Smo and Sufu”; the Gli-mediated transcription result is given as “Represses Gli-medicated transcription in a variety of cell types”.
For `CC(C)CCC[C@](C)(O)[C@H]1CC[C@H]2[C@@H]3CC=C4C[C@@H](O)CC[C@]4(C)[C@H]3CC[C@@]21C` [20α-Hydroxycholesterol], the “targeting / binding of Smo” value in assay [1] is reported as “Does not bind directly to Smo”. Besides, the Gli-mediated transcription entry in assay [6] is listed as “Activates Gli-mediated transcription in a variety of cell types”.
Regarding `C[C@@]12C[C@H]3OC(=O)[C@@H]1CO[C@]14O[C@]5([C@H]2C1=O)[C@@](O)(CC[C@H]1[C@H]4C[C@H]2O[C@]24CC=CC(=O)[C@]14C)C(=O)O[C@@]35C` [Physalin F], the “Glil,2-mediated transcription” value in assay [2] is recorded as “Inhibits Glil,2-mediated transcription in HaCat cells”. In assay [3], the “transcription of Ptchl and BCL2” value was “Inhibits transcription of Ptchl and BCL2 in HaCaT cells”.
As to `O=C1NCc2c1c1c3ccccc3[nH]c1c1[nH]c3ccccc3c21` [Staurosporinone], the “Glil,2-mediated transcription” value in assay [2] is “Inhibits Glil,2-mediated transcription in HaCat cells”. In assay [3], the “transcription of Ptchl and BCL2” value is “Inhibits transcription of Ptchl and BCL2 in HaCaT cells”.
Take `C[C@H](CCCC(C)(C)O)[C@H]1CC[C@H]2[C@@H]3CC=C4C[C@@H](O)CC[C@]4(C)[C@H]3CC[C@]12C` [25-Hydroxycholesterol]: the “targeting / binding of Smo” value in assay [1] was “Does not bind directly to Smo”. The Gli-mediated transcription result in assay [6] is listed as “Activates Gli-mediated transcription in a variety of cell types”.
Take `CCOc1cc(C(=O)Nc2ccc(Cl)c(-c3nc4ccccc4[nH]3)c2)cc(OCC)c1OCC` [SANT2]: the “targeting / binding of Smo” value in assay [1] is on record as “Targets Smo”. Further, the Gli-mediated transcription result in assay [6] was “Represses Gli-medicated transcription in a variety of cell types”.
